Patent US20220249538A1, “TREATMENT AGENT FOR SEX HORMONE-INSENSITIVE GREB1-POSITIVE TUMORS” (OSAKA UNIVERSITY, priority 2019, published 2022)

Experiments:
Format in all cases: cell-based, human
GREB1 = GREB1 expression in HepG2 cells after GREB1 siRNA or GREB1 ASO (cell lysates probed with anti-GREB1 antibody); conditions: siRNA 10 nm, lysate probing
Procedure: Phosphorothioated I5-mer antisense oligonucleotides (ASOs) containing AmNA monomers were prepared (synthesized by GeneDesign (Ibaraki, Japan)). In the present specification, “hGREB1-6424-AmNA (15)” is sometimes simply referred to as “ASO-6424” or “GREB1 ASO-6424”. Similar abbreviations are used for describing other ASOs. Using RNAiMAX (Invitrogen, Carlsbad, Calif., USA), HepG2 or COLO679 cells were transfected with 10 nM of ASOs. In experiments, the cells were used from 36 to 48 hours after transfection.
Using RNAiMAX (Life Technologies/Thermo Fisher Scientific), HepG2 cells, Huh6 cells, Hep3B cells, JHH7 cells, and SKMEL28 cells were each transfected with each siRNA (10 nm). In experiments, the cells were used from 48 to 120 hours after transfection.
As reported previously, knockdown of β-catenin decreased HepG2 cell proliferation (see a of FIG. 3). […] Thus, to elucidate the role of GREB1 in HepG2 cells, knockdown of GREB1 was carried out using two different siRNAs.
Next, HepG2 cells were transfected with control ASO or each of the above-described GREB1 ASOs, cultured in a medium containing 10% FBS for 2 days, and the cell lysates were probed with anti-GREB1 antibody and anti-HSP90 antibody.

HepG2 cells = experiment: Cell proliferation assay, two-dimensional culture (plastic dish), Cyquant
Procedure: Cells were seeded on a plate at 1.0×10^4 cells/mL, and, after 12 hours, the medium was replaced with a medium containing 10% serum. While the cell number was counted every 48 hours, the cells were cultured up to 10 days. The measurement of the cell number was performed using Cyquant NF assays (Life Technologies/Thermo Fisher Scientific) according to protocols recommended by the manufacturer.
Mock HepG2 cells (having a vector only, containing no GREB1) or GREB1-transduced HepG2 cells were transfected with control siRNA or two different types of siRNA (GREB1 #1 siRNA and GREB1 #2 siRNA), then two-dimensional culture (plastic dish culture) was performed, and a relative cell number was calculated by Cyquant assay overtime. As a result, in GREB1 knockdown, proliferative capacity of HepG2 cells in two-dimensional culture was reduced. However, when GREB1-transduced HepG2 cells were transfected with siRNAs against GREB1 (GREB1 #1 siRNA/GREB1 and GREB1 #2 siRNA/GREB1), the proliferative capacity of HepG2 cells was not affected (see a of FIG. 4).

[1] = test system: PAI-1 gene locus (exon 2); experiment: Chromatin immunoprecipitation with anti-acetylated histone 4 antibody, PAI-1 exon 2; conditions: HepG2 cells; presence or absence of 10 ng/mL TGFβ for 30 minutes
Procedure: Confluent HepG2 cells in a 10 cm dish were stimulated in the presence or absence of 5 ng/ml of TGFβ1 for 3 hours. Thereafter, the cells were allowed to crosslink using 1% formaldehyde at room temperature for 10 minutes, and the crosslinking reaction was terminated with 0.125 M glycine. The cells were washed three times with cold PBS, and thereafter the cells were removed and collected. Further, the cells were sedimented by centrifugation, and lysed with a sodium dodecyl sulfate (SDS) lysis buffer (50 mM Tris/HCl [pH 8.0], 10 mM EDTA, and 0.5% SDS). The cell lysates were subjected to ultrasonication to shear DNA into DNA fragments having sizes of 200 to 1000 bp. Supernatant of the sheared chromatin was diluted with ChIP dilution buffer (16.7 mM Tris/HCl [pH 8.0], 167 mM NaCl, 1.2 mM EDTA, and 1.1% Triton X-100) containing a protease inhibitor and a phosphatase inhibitor, and precleared by adding salmon sperm DNA/protein A-agarose beads (Millipore, Billerica, Mass., USA). […]
Further, HepG2 cells transfected with control siRNA or GREB1 #2 siRNA were cultured in the presence or absence of 10 ng/mL of TGFβ for 30 minutes. […] Next, the exon 2 domain of PAI contained in the cell lysates (Input) and immunoprecipitates (IP) was analyzed by PCR using domain-specific primers.

GREB1 #2 siRNA: siRNA against human GREB1; sense 5′-CCUCCUACAAAGCAAUAUUTT-3′ (SEQ ID NO: 6), antisense SEQ ID NO: 7 (antisense AAUAUUGCUUUGUAGGAGGTT; chemistry not given here)
knockdown of GREB1 (anti-GREB1 antibody) (GREB1): knocked down
proliferative capacity of HepG2 cells in two-dimensional culture (HepG2 cells; GREB1-transduced HepG2 cells): not affected
proliferative capacity of HepG2 cells in two-dimensional culture (HepG2 cells; mock HepG2 cells, relative cell number by Cyquant over time): reduced
amount of acetylated histone 4 in the PAI-1 gene locus (exon 2) [1]: increased
